Patent US8466088B2, “Herbicidal compositions containing benzoylpyrazole compounds” (Ishihara Sangyo Kaisha, Ltd., priority 2007, dated 2013)
Like-named read-outs stand apart in the source and are kept apart here.

Experiments:
crabgrass = assay: Example 1: pot test, foliar treatment, visually observed growth inhibition of crabgrass; format: in vivo
Source text: (§1) When the herbicidal activity in a case where two active ingredients are combined, is larger than the simple sum of the respective herbicidal activities of the two active ingredients (the expected activity), it is called a synergistic effect. The activity expected by the combination of two active ingredients can be calculated as follows (Colby S. R., “Weed”, vol. 15, p. 20-22, 1967). E=α+β−(α×β+100) where
(§2) α: growth inhibition rate when treated with x (g/ha) of herbicide X,
(§3) β: growth inhibition rate when treated with y (g/ha) of herbicide Y,
(§4) E: growth inhibition rate expected when treated with x (g/ha) of herbicide X and y (g/ha) of herbicide Y.
(§5) That is, when the actual growth inhibition rate (measured value) is larger than the growth inhibition rate by the above calculation (calculated value), the activity by the combination can be regarded as showing a synergistic effect.
(§6) Upland field soil was put into a 1/1,000,000 hectare pot, and seeds of various plants were sown. When the respective plants reached predetermined leaf stage, herbicidal compositions in predetermined amounts were diluted with water in an amount corresponding to 300 L/ha and applied for foliar treatment by a small sprayer.
(§7) Further, in accordance with the above Colby's formula, the growth inhibition rate (calculated value) was calculated. In Tables, with respect to the compound A, Compound Nos. in Table 1 or 3 are described, and with respect to other herbicidal compounds, common names are described.

velvetleaf = assay: Example 1: pot test, foliar treatment, visually observed growth inhibition of velvetleaf; format: in vivo, Abutilon theophrasti MEDIC.
Source text: as §1, §2, §3, §4, §5, §6, §7

various plants = assay: Example 1: pot test, foliar treatment, visually observed growth inhibition of other sown plants (Tables 5-1 to 5-137); format: in vivo; details: foliar, prickly sida 2.1 to 3.1 leaf stage, 20th day after application, read-out: Growth inhibition rate (%) of prickly sida, Measured value
Source text: as §1, §2, §3, §4, §5, §6
as §7, with “On the 14th to 28th day after application, the state of growth of the respective plants was visually observed to determine the growth inhibition rate (measured value) in accordance with the following evaluation standard. Further,” for “Further,”

[1] = 3.2 to 4.3 leaf stage, 21st day after application, 125 g/ha

## CCNc1nc(Cl)nc(NC(C)(C)C)n1 [Terbuthylazine, terbuthylazine, reference compound]
crabgrass; Digitaria sanguinalis, foliar, 3.1 to 4.0 leaf stage, 22nd day after application, 175 g/ha, read-out: Growth inhibition rate (%) of crabgrass, Measured value
  inhibition at 175 g/ha: 0%
crabgrass; Digitaria sanguinalis, foliar, 3.1 to 4.0 leaf stage, 22nd day after application, 375 g/ha, read-out: Growth inhibition rate (%) of crabgrass, Measured value
  inhibition at 375 g/ha: 0%
crabgrass; Digitaria sanguinalis, foliar, 3.2 to 4.3 leaf stage, on the 22nd day after application, foliar, active ingredient amount 250 g/ha, read-out: Growth inhibition rate (%) of crabgrass, Measured value
  inhibition at 250 g/ha: 20%
crabgrass; Digitaria sanguinalis, foliar, 3.5 to 4.0 leaf stage, 21st day after application, 125 g/ha, read-out: Growth inhibition rate (%) of crabgrass, Measured value
  inhibition at 125 g/ha: 0%
crabgrass; Digitaria sanguinalis, foliar, 4.3 to 4.5 leaf stage, 20th day after application, 125 g/ha, read-out: Growth inhibition rate (%) of crabgrass, Measured value
  inhibition at 125 g/ha: 0%
crabgrass; Digitaria sanguinalis, foliar, 4.3 to 4.5 leaf stage, 20th day after application, 250 g/ha, read-out: Growth inhibition rate (%) of crabgrass, Measured value
  inhibition at 250 g/ha: 0%
velvetleaf; Abutilon theophrasti, foliar, 2.0 to 2.5 leaf stage, 21st day after application, 125 g/ha, read-out: Growth inhibition rate (%) of velvetleaf, Measured value
  inhibition at 125 g/ha: 0%
velvetleaf; Abutilon theophrasti, foliar, 2.4 to 3.2 leaf stage, on the 22nd day after application, foliar, active ingredient amount 125 g/ha, read-out: Growth inhibition rate (%) of velvetleaf, Measured value
  inhibition at 125 g/ha: 5%
velvetleaf; Abutilon theophrasti, foliar, 2.8 to 3.6 leaf stage, 24th day after application, 2000 g/ha, read-out: Growth inhibition rate (%) of velvetleaf, Measured value
  inhibition at 2000 g/ha: 20%
velvetleaf; Abutilon theophrasti, foliar, 3.0 to 3.5 leaf stage, 20th day after application, 125 g/ha, read-out: Growth inhibition rate (%) of velvetleaf, Measured value
  inhibition at 125 g/ha: 0%
velvetleaf; Abutilon theophrasti, foliar, 3.3 to 4.3 leaf stage, 20th day after application, read-out: Growth inhibition rate (%) of velvetleaf, Measured value
  inhibition at 375 g/ha: 20%
velvetleaf; Abutilon theophrasti, foliar, 3.3 to 4.3 leaf stage, 20th day after application, 750 g/ha, read-out: Growth inhibition rate (%) of velvetleaf, Measured value
  inhibition at 750 g/ha: 30%
velvetleaf; Abutilon theophrasti, foliar, 4.0 to 4.4 leaf stage, 22nd day after application, 175 g/ha, read-out: Growth inhibition rate (%) of velvetleaf, Measured value
  inhibition at 175 g/ha: 15%
velvetleaf; Abutilon theophrasti, foliar, 4.0 to 4.4 leaf stage, 22nd day after application, read-out: Growth inhibition rate (%) of velvetleaf, Measured value
  inhibition at 375 g/ha: 25%
Various plants; 45 g/ha
  inhibition at 45 g/ha: 0%
Various plants; 63 g/ha
  inhibition at 63 g/ha: 0%
Various plants; 125 g/ha
  inhibition at 125 g/ha: 0%
Various plants; 250 g/ha
  inhibition at 250 g/ha: 15%
Various plants; 500 g/ha
  inhibition at 500 g/ha: 55%

## CC(C)N(C(=O)COc1nnc(C(F)(F)F)s1)c1ccc(F)cc1 [Flufenacet]
crabgrass; Digitaria sanguinalis, foliar, 3.0 to 4.3 leaf stage, 21st day after application, 150 g/ha, read-out: Growth inhibition rate (%) of crabgrass, Measured value
  inhibition at 150 g/ha: 0%
crabgrass; Digitaria sanguinalis, foliar, 3.0 to 4.3 leaf stage, 21st day after application, read-out: Growth inhibition rate (%) of crabgrass, Measured value
  inhibition at 300 g/ha: 5%
crabgrass; Digitaria sanguinalis, foliar, 3.2 to 4.3 leaf stage, 21st day after application, read-out: Growth inhibition rate (%) of crabgrass, Measured value
  inhibition at 300 g/ha: 10%
velvetleaf; Abutilon theophrasti, foliar, 3.2 to 4.3 leaf stage, 21st day after application, 300 g/ha, read-out: Growth inhibition rate (%) of velvetleaf, Measured value
  inhibition at 300 g/ha: 0%

## CON(C)C(=O)Nc1ccc(Cl)c(Cl)c1 [Linuron]
crabgrass; Digitaria sanguinalis, foliar, 3.5 to 4.2 leaf stage, 14th day after application, 250 g/ha, read-out: Growth inhibition rate (%) of crabgrass, Measured value
  inhibition at 250 g/ha: 20%
crabgrass; Digitaria sanguinalis, foliar, 3.5 to 4.2 leaf stage, 14th day after application, 500 g/ha, read-out: Growth inhibition rate (%) of crabgrass, Measured value
  inhibition at 500 g/ha: 35%
velvetleaf; Abutilon theophrasti, foliar, 3.3 to 4.3 leaf stage, 20th day after application, 250 g/ha, read-out: Growth inhibition rate (%) of velvetleaf, Measured value
  inhibition at 250 g/ha: 55%
velvetleaf; Abutilon theophrasti, foliar, 3.3 to 4.3 leaf stage, 20th day after application, 500 g/ha, read-out: Growth inhibition rate (%) of velvetleaf, Measured value
  inhibition at 500 g/ha: 93%

## CCC(CC)Nc1c([N+](=O)[O-])cc(C)c(C)c1[N+](=O)[O-] [Pendimethalin]
crabgrass; Digitaria sanguinalis, foliar, 3.5 to 5.0 leaf stage, 22nd day after application, 100 g/ha, read-out: Growth inhibition rate (%) of crabgrass, Measured value
  inhibition at 100 g/ha: 30%
velvetleaf; Abutilon theophrasti, foliar, 3.5 to 4.0 leaf stage, 22nd day after application, 200 g/ha, read-out: Growth inhibition rate (%) of velvetleaf, Measured value
  inhibition at 200 g/ha: 45%

## CCOC(=O)COc1ccc(Cl)cc1Cl [2,4-D-ethyl]
crabgrass; [1]
  Growth inhibition rate (%) of crabgrass, Measured value: 0%
crabgrass; 3.6 to 4.5 leaf stage, 14th day after application, 100 g/ha
  Growth inhibition rate (%) of crabgrass, Measured value: 0%
crabgrass; 3.6 to 4.5 leaf stage, 22nd day after application, 200 g/ha
  Growth inhibition rate (%) of crabgrass, Measured value: 25%
velvetleaf; 2.4 to 3.2 leaf stage, 22nd day after application, 63 g/ha
  Growth inhibition rate (%) of velvetleaf, Measured value: 30%
velvetleaf; [1]
  Growth inhibition rate (%) of velvetleaf, Measured value: 50%

## CCCCCCCCSC(=O)Oc1cc(Cl)nnc1-c1ccccc1 [Pyridate]
crabgrass; Digitaria sanguinalis, foliar, 3.0 to 4.3 leaf stage, 21st day after application, 100 g/ha, read-out: Growth inhibition rate (%) of crabgrass, Measured value
  inhibition at 100 g/ha: 0%
crabgrass; Digitaria sanguinalis, foliar, 3.0 to 4.3 leaf stage, 21st day after application, 200 g/ha, read-out: Growth inhibition rate (%) of crabgrass, Measured value
  inhibition at 200 g/ha: 0%
crabgrass; Digitaria sanguinalis, foliar, 3.2 to 4.3 leaf stage, 21st day after application, 200 g/ha, read-out: Growth inhibition rate (%) of crabgrass, Measured value
  inhibition at 200 g/ha: 0%
crabgrass; Digitaria sanguinalis, foliar, 4.1 to 5.3 leaf stage, 20th day after application, 200 g/ha, read-out: Growth inhibition rate (%) of crabgrass, Measured value
  inhibition at 200 g/ha: 5%
velvetleaf; Abutilon theophrasti, foliar, 3.2 to 4.3 leaf stage, 21st day after application, 200 g/ha, read-out: Growth inhibition rate (%) of velvetleaf, Measured value
  inhibition at 200 g/ha: 0%

## CNC.COc1c(Cl)ccc(Cl)c1C(=O)O [Dicamba-dimethylammonium]
crabgrass; 3.0 to 4.3 leaf stage, 21st day after application, 100 g/ha
  Growth inhibition rate (%) of crabgrass, Measured value: 0%
crabgrass; 3.0 to 4.3 leaf stage, 21st day after application, 200 g/ha
  Growth inhibition rate (%) of crabgrass, Measured value: 0%
crabgrass; 3.5 to 5.0 leaf stage, 22nd day after application, 100 g/ha
  Growth inhibition rate (%) of crabgrass, Measured value: 0%
crabgrass; 3.5 to 5.0 leaf stage, 22nd day after application, 200 g/ha
  Growth inhibition rate (%) of crabgrass, Measured value: 0%
crabgrass; 3.7 to 4.6 leaf stage, 21st day after application, 100 g/ha
  Growth inhibition rate (%) of crabgrass, Measured value: 0%
crabgrass; 3.7 to 4.6 leaf stage, 21st day after application, 200 g/ha
  Growth inhibition rate (%) of crabgrass, Measured value: 15%
velvetleaf; 2.0 to 2.8 leaf stage, 21st day after application, 100 g/ha
  Growth inhibition rate (%) of velvetleaf, Measured value: 50%
velvetleaf; 2.0 to 2.8 leaf stage, 21st day after application, 200 g/ha
  Growth inhibition rate (%) of velvetleaf, Measured value: 55%
velvetleaf; 3.0 to 3.8 leaf stage, 28th day after application, 100 g/ha
  Growth inhibition rate (%) of velvetleaf, Measured value: 50%
velvetleaf; 3.2 to 5.0 leaf stage, 14th day after application, 100 g/ha
  Growth inhibition rate (%) of velvetleaf, Measured value: 50%
velvetleaf; 3.2 to 5.0 leaf stage, 21st day after application, 100 g/ha
  Growth inhibition rate (%) of velvetleaf, Measured value: 50%
velvetleaf; 3.5 to 4.3 leaf stage, 21st day after application, 100 g/ha
  Growth inhibition rate (%) of velvetleaf, Measured value: 50%
